{"source": "patent US12139481B2", "about": "“Compositions comprising macrocycle derivatives incorporating bridged macrocycles and methods of producing and using same” (Southwestern Oklahoma State University, priority 2015, dated 2024)", "key": {"[1]": {"test_system": "methicillin-resistant S. aureus ATCC 33591 (MRS)", "assay": "Antibacterial broth dilution assay against MRSA (modified CLSI)", "assay_type": "cell-based, Staphylococcus aureus", "conditions": "for MRSa IC50 / IC50: in vitro; for IC50: converted with molecular weight; for X more potent than ciprofloxacen: molar IC50 ratio versus ciprofloxacen", "method_in_brief": "(§1)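 Growth read by optical density at 530 nm, duplicate wells, 1% final DMSO. Staphylococcus spp.: Mueller-Hinton pH 7.3, 5.0×10^5 CFU/ml, 35 °C for 16-20 h; Candida spp.: RPMI/dextrose/glutamine/MOPS pH 6.0, 1.5×10^3 CFU/ml, 35 °C for 46-50 h. Reported values are 50% inhibition versus controls, no-growth MIC, and killing MFC/MBC.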"}, "[2]": {"test_system": "L. donovani promastigotes", "assay": "Antileishmanial Alamar Blue assay on promastigotes", "assay_type": "cell-based, Leishmania donovani", "conditions": "for X more potent than Pentamidine: L. donovani, ratio of molar IC50 to Pentamidine", "method_in_brief": "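Alamar Blue fluorescence (544/590 nm) quantified growth after 48 hours at 26° C of compound-treated promastigotes. Parasites were seeded at 5×10^5/mL in RPMI 1640 plus 10% FCS; drug range 50-3.1 μg/mL, and IC50 derived by plotting percent growth against test concentration.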"}, "[3]": {"test_system": "Staphylococcus aureus ATCC 29213", "assay": "Antibacterial broth dilution assay against S. aureus (modified CLSI)", "assay_type": "cell-based", "conditions": "for S. aureus IC50 / IC50: in vitro; for IC50: converted with molecular weight; for X more potent than ciprofloxacen: molar IC50 ratio versus ciprofloxacen", "method_in_brief": "as §1"}, "C. krusei ATCC 6258": {"test_system": "C. krusei ATCC 6258", "assay": "Antifungal broth dilution assay against C. krusei (modified CLSI)", "assay_type": "cell-based, Candida krusei", "conditions": "for X more potent than Amphotericin B: C. krusei, ratio of molar IC50 to amphotericin B; for C. krusei IC50 / IC50: in vitro; for IC50: read-out: C. krusei IC50 (mol/L)", "method_in_brief": "as §1"}, "[4]": {"test_system": "Plasmodium falciparum W2 clone (Indochina, chloroquine-resistant)", "assay": "In vitro antimalarial assay, chloroquine-resistant W2 clone", "assay_type": "cell-based", "conditions": "W2 clone; for IC50: converted with molecular weight, read-out: P. falciparum W2 IC50; for X more potent than chloroquine: molar IC50 ratio versus chloroquine", "method_in_brief": "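Parasites grown in type A human RBCs; assay run on infected cell suspension at 2% parasitemia and 2% hematocrit, in duplicate at several concentrations. IC50 taken from dose curves, per the Makler method, with DMSO as vehicle; Vero cytotoxicity run in parallel to derive a selectivity index.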"}, "[5]": {"conditions": "promastigotes, 48 hours, Alamar Blue"}, "[6]": {"conditions": "promastigotes, 48 hours, Alamar Blue, read-out: L. donavani IC50"}}, "note": "Several values for one entry are separate records, joined by “and”; a condition that tells them apart may be missing. Equal values may be shown once. Read-outs that look alike come from different tables or passages of the source.", "data": [{"smiles": "c1ccc(CN2CCN3CCCN(CC2)CCN(Cc2ccccc2)CC3)cc1", "note": "[AW009, Bn2PBCyclen]", "values": [{"measurement": "MRSa IC50", "setting": "[1]", "value": 1.050, "unit": "µg/mL"}, {"measurement": "IC50", "setting": "[1]", "value": 2.68, "unit": "µM"}, {"measurement": "X more potent than ciprofloxacen", "setting": "[1]", "value": 0.08}, {"measurement": "X more potent than Pentamidine", "setting": "[2]", "value": 0.10}, {"measurement": "L. donovani IC50", "setting": "[2]; [5]", "value": 21.40, "unit": "µg/mL"}, {"measurement": "IC50", "setting": "[2]; [6]", "value": 54.5, "unit": "µM"}, {"measurement": "S. aureus IC50", "setting": "[3]", "value": 2.010, "unit": "µg/mL"}, {"measurement": "IC50", "setting": "[3]", "value": 5.12, "unit": "µM"}, {"measurement": "X more potent than ciprofloxacen", "setting": "[3]", "value": 0.05}, {"measurement": "X more potent than Amphotericin B", "setting": "C. krusei ATCC 6258", "value": 0.10}, {"measurement": "C. krusei IC50", "setting": "C. krusei ATCC 6258", "value": 6.170, "unit": "µg/mL"}, {"measurement": "IC50", "setting": "C. krusei ATCC 6258", "value": 15.7, "unit": "µM"}, {"measurement": "P. falciparum W2 IC50", "setting": "[4]", "value": 1.5560, "unit": "µg/mL"}, {"measurement": "IC50", "setting": "[4]", "value": 3.96, "unit": "µM"}, {"measurement": "X more potent than chloroquine", "setting": "[4]", "value": 0.17}]}, {"smiles": "[Cl][Mn-2]([Cl])([Cl])[Cl].[Mn+2].c1ccc(CN2CCCN3CCCN(CCCN(Cc4ccccc4)CC3)CC2)cc1", "note": "[BME08, [Mn(Bn2PBCyclam)][MnCl4]]", "values": [{"measurement": "MRSa IC50", "setting": "[1]", "value": 0.800, "unit": "µg/mL"}, {"measurement": "IC50", "setting": "[1]", "value": 1.19, "unit": "µM"}, {"measurement": "X more potent than ciprofloxacen", "setting": "[1]", "value": 0.18}, {"measurement": "X more potent than Pentamidine", "setting": "[2]", "value": "2 and 2.01"}, {"measurement": "L. donovani IC50", "setting": "[2]; [5]", "value": 1.78, "unit": "µg/mL"}, {"measurement": "IC50", "setting": "[2]; [6]", "value": 2.65, "unit": "µM"}, {"measurement": "IC50", "setting": "[2]; read-out: IC50 against L. donovani", "value": 2.65, "unit": "µM"}, {"measurement": "S. aureus IC50", "setting": "[3]", "value": 0.800, "unit": "µg/mL"}, {"measurement": "IC50", "setting": "[3]", "value": 1.19, "unit": "µM"}, {"measurement": "X more potent than ciprofloxacen", "setting": "[3]", "value": 0.23}, {"measurement": "X more potent than Amphotericin B", "setting": "C. krusei ATCC 6258", "value": 0.19}, {"measurement": "C. krusei IC50", "setting": "C. krusei ATCC 6258", "value": 5.270, "unit": "µg/mL"}, {"measurement": "IC50", "setting": "C. krusei ATCC 6258", "value": 7.84, "unit": "µM"}, {"measurement": "P. falciparum W2 IC50", "setting": "[4]", "value": 0.1206, "unit": "µg/mL"}, {"measurement": "IC50", "setting": "[4]", "value": 0.179, "unit": "µM"}, {"measurement": "X more potent than chloroquine", "setting": "[4]", "value": 3.78}]}, {"smiles": "CC(=O)[O-].F[P-](F)(F)(F)(F)F.[Ni+2].c1ccc(CN2CCCN3CCCN(CCCN(Cc4ccccc4)CC3)CC2)cc1", "note": "[DJD22, [Ni(Bn2PBCyclam)(OAc)]PF6]", "values": [{"measurement": "MRSa IC50", "setting": "[1]", "value": 4.620, "unit": "µg/mL"}, {"measurement": "IC50", "setting": "[1]", "value": 6.76, "unit": "µM"}, {"measurement": "X more potent than ciprofloxacen", "setting": "[1]", "value": 0.03}, {"measurement": "X more potent than Pentamidine", "setting": "[2]", "value": 0.28}, {"measurement": "L. donovani IC50", "setting": "[2]; [5]", "value": 13.10, "unit": "µg/mL"}, {"measurement": "IC50", "setting": "[2]; [6]", "value": 19.2, "unit": "µM"}, {"measurement": "S. aureus IC50", "setting": "[3]", "value": 4.630, "unit": "µg/mL"}, {"measurement": "IC50", "setting": "[3]", "value": 6.78, "unit": "µM"}, {"measurement": "X more potent than ciprofloxacen", "setting": "[3]", "value": 0.04}, {"measurement": "X more potent than Amphotericin B", "setting": "C. krusei ATCC 6258", "value": 0.19}, {"measurement": "C. krusei IC50", "setting": "C. krusei ATCC 6258", "value": 5.250, "unit": "µg/mL"}, {"measurement": "IC50", "setting": "C. krusei ATCC 6258", "value": 7.68, "unit": "µM"}, {"measurement": "P. falciparum W2 IC50", "setting": "[4]", "value": 0.9060, "unit": "µg/mL"}, {"measurement": "IC50", "setting": "[4]", "value": 1.33, "unit": "µM"}, {"measurement": "X more potent than chloroquine", "setting": "[4]", "value": 0.51}]}, {"smiles": "c1cc(CN2CCCN3CCCN(CCCNCC3)CC2)ccc1CN1CCCN2CCCN(CCCNCC2)CC1", "note": "[SLK10, p-H2PBCyclams]", "values": [{"measurement": "MRSa IC50", "setting": "[1]", "value": 2.500, "unit": "µg/mL"}, {"measurement": "IC50", "setting": "[1]", "value": 4.29, "unit": "µM"}, {"measurement": "X more potent than ciprofloxacen", "setting": "[1]", "value": 0.05}, {"measurement": "X more potent than Pentamidine", "setting": "[2]", "value": 0.20}, {"measurement": "L. donovani IC50", "setting": "[2]; [5]", "value": 15.50, "unit": "µg/mL"}, {"measurement": "IC50", "setting": "[2]; [6]", "value": 26.6, "unit": "µM"}, {"measurement": "S. aureus IC50", "setting": "[3]", "value": 1.410, "unit": "µg/mL"}, {"measurement": "IC50", "setting": "[3]", "value": 2.42, "unit": "µM"}, {"measurement": "X more potent than ciprofloxacen", "setting": "[3]", "value": 0.11}, {"measurement": "P. falciparum W2 IC50", "setting": "[4]", "value": 1.7920, "unit": "µg/mL"}, {"measurement": "IC50", "setting": "[4]", "value": 3.07, "unit": "µM"}, {"measurement": "X more potent than chloroquine", "setting": "[4]", "value": 0.22}]}, {"smiles": "CN1CCCN2CCN(CCCN(Cc3cccc(CN4CCCN5CCN(C)CCCN(CC5)CC4)c3)CC2)CC1.Cl.Cl.Cl.Cl.Cl.Cl.Cl.Cl", "note": "[TJS04, m-CB-cyclams HCl salt]", "values": [{"measurement": "MRSa IC50", "setting": "[1]", "value": 7.050, "unit": "µg/mL"}, {"measurement": "IC50", "setting": "[1]; HCl salt", "value": 7.24, "unit": "µM"}, {"measurement": "X more potent than ciprofloxacen", "setting": "[1]", "value": 0.03}, {"measurement": "X more potent than Pentamidine", "setting": "[2]", "value": 0.50}, {"measurement": "L. donovani IC50", "setting": "[2]; [5]", "value": 10.37, "unit": "µg/mL"}, {"measurement": "IC50", "setting": "[2]; promastigotes, 48 hours, Alamar Blue, HCl salt, read-out: L. donavani IC50", "value": 10.7, "unit": "µM"}, {"measurement": "S. aureus IC50", "setting": "[3]", "value": 9.280, "unit": "µg/mL"}, {"measurement": "IC50", "setting": "[3]; HCl salt", "value": 9.53, "unit": "µM"}, {"measurement": "X more potent than ciprofloxacen", "setting": "[3]", "value": 0.03}, {"measurement": "P. falciparum W2 IC50", "setting": "[4]", "value": 0.6558, "unit": "µg/mL"}, {"measurement": "IC50", "setting": "[4]", "value": 0.75, "unit": "µM"}, {"measurement": "X more potent than chloroquine", "setting": "[4]", "value": 0.90}]}]}
